Patent publication US7348322B2, “Glucocorticoid receptor modulators as antiinflammatory agents” (Roche Palo Alto LLC, priority 2005, dated 2008)

Molecular target: T1, Human recombinant purified glucocorticoid receptor (Homo sapiens, UniProt P04150)
T1 sequence (P04150 1-777): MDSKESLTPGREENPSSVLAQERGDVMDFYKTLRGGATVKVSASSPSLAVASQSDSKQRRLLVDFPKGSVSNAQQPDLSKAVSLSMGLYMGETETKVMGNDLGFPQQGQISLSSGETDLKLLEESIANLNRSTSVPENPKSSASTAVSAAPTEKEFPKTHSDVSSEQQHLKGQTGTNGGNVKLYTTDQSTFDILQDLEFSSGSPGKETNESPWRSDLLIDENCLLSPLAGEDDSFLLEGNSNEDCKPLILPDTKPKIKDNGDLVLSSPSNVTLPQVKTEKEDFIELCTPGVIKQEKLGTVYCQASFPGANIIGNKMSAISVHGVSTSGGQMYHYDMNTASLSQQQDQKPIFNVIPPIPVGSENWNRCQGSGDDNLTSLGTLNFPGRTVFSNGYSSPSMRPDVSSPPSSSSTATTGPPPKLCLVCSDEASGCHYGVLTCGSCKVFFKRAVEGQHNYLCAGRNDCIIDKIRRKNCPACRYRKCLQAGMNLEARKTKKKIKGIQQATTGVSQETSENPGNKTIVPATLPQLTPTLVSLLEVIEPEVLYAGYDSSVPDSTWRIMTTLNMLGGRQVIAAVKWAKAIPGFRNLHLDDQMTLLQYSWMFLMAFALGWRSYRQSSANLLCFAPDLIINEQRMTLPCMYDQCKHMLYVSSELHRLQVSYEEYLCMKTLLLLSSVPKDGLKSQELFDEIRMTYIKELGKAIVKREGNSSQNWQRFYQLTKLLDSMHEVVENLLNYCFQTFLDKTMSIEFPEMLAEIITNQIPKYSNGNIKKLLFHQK
Experiment: Glucocorticoid receptor competitive binding assay (3H-dexamethasone)
Details: competition with 2 nM 3H-Dexamethasone, 1 nM GR, 4° C. overnight; read-out: Binding Affinity Ki
Procedure: The affinity of glucocorticoid receptor antagonists for the glucocorticoid receptor was determined in competitive binding assays by the ability of the antagonist to compete with tritiated dexamethasone.
All assay steps were performed on ice in 96-well plates. Binding buffer contained 10 mM potassium phosphate pH 7.4, 20 mM Na2Mo4, 100 μM EDTA, 2% DMSO, and 5 mM DTT. Human recombinant purified glucocorticoid receptor was used at 1 nM. Compounds tested had up to 2% DMSO final concentration. Non-specific binding condition was 1 μM dexamethasone. The radioligand used for the competition assay was 2 nM ^3H-Dexamethasone (83 Ci/mmol stock solution). Buffer, compounds or vehicles, GR, and radioligand were incubated at 4° C. overnight. Unifilter GF/B 96-well filter plates were treated with 0.5% PEI after incubation. Samples were transferred to filter plates by a cell harvester. Filter plates were washed five times with 50 mM Tris pH 7.5 and 5 mM EDTA wash buffer. Samples were dried at 65° C. for about 1 hr. Scintillation fluid was added to filter plates at 50 μL/ well and ^3H cpm were measured on the TopCount scintillation counter.

Compared with `ON=C(CNc1ccc(-c2cnco2)cc1)CC1(c2ccccc2C(F)(F)F)CCC1` (racemic) [Example 4, 1-(4-Oxazol-5-yl-phenylamino)-3-[1-(2-trifluoromethyl-phenyl)-cyclobutyl]-propan-2-one oxime], `O/N=C(\CNc1cccc(-c2cnco2)c1)CC1(c2ccccc2C(F)(F)F)CCC1` [Example 3, 1-(3-Oxazol-5-yl-phenylamino)-3-[1-(2-trifluoromethyl-phenyl)-cyclobutyl]-propan-2-one oxime] is 2.5-fold higher in Ki: 851 nM for the first, 2100 nM for the second.

Compared with `Cc1noc(=O)c2ccc(NCC(=O)CC3(c4ccccc4C(F)(F)F)CCC3)cc12` [Example 1, 4-Methyl-6-{2-oxo-3-[1-(2-trifluoromethyl-phenyl)-cyclobutyl]-propylamino}-benzo[d][1,2]oxazin-1-one], `Cc1noc(=O)c2ccc(NC/C(CC3(c4ccccc4C(F)(F)F)CCC3)=N\O)cc12` [Example 2, 1-(4-Methyl-1-oxo-1H-benzo[d][1,2]oxazin-6-ylamino)-3-[1-(2-trifluoromethyl-phenyl)-cyclobutyl]propan-2-one oxime] is 4.6-fold lower in Ki: 405 nM for the first, 89 nM for the second. The second binds more tightly here.

Compared with `O=C(CC1(c2ccccc2C(F)(F)F)CCC1)C(=O)Nc1ccc(-c2cnco2)cc1` [Example 5, N-(4-Oxazol-5-yl-phenyl)-2-oxo-3-[1-(2-trifluoromethyl-phenyl)-cyclobutyl]-propionamide], `O=C(CC1(c2ccccc2C(F)(F)F)CCC1)C(=O)Nc1cccc(-c2ccno2)c1` [Example 6, N-(3-Isoxazol-5-yl-phenyl)-2-oxo-3-[1-(2-trifluoromethyl-phenyl)-cyclobutyl]-propionamide] is 3.3-fold higher in Ki: 723 nM for the first, 2400 nM for the second. The first binds more tightly here.
